Experimental data: the supplement of paper PMC10307832

Legend:
Assay in all cases: relative viability (nuclei count vs DMSO), 5 days (fraction); higher = more cells survive
Tipifarnib + Foretinib = compound: Cn1cncc1[C@@](N)(c1ccc(Cl)cc1)c1ccc2c(c1)c(-c1cccc(Cl)c1)cc(=O)n2C [Tipifarnib] + COc1cc2c(Oc3ccc(NC(=O)C4(C(=O)Nc5ccc(F)cc5)CC4)cc3F)ccnc2cc1OCCCN1CCOCC1 [Foretinib] (partner 0.25 µM)
Summary of the method: (§1)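 After 5 days of treatment, lung cancer cells in 1536-well plates were fixed and stained in a single step (final 0.05% Triton X-100, 1% formaldehyde, 1 ug/ml Hoechst) and their nuclei counted on 4× images. Treatment had been applied by pin tool the day after seeding as one drug alone or as a fixed anchor-drug dose with five library-drug doses (not always all listed) in √10 steps. Relative viability is the nuclei count of treated wells divided by that of vehicle wells, and values are medians of duplicate plates.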

Tipifarnib + Luminespib = compound: Cn1cncc1[C@@](N)(c1ccc(Cl)cc1)c1ccc2c(c1)c(-c1cccc(Cl)c1)cc(=O)n2C [Tipifarnib] + CCNC(=O)c1noc(-c2cc(C(C)C)c(O)cc2O)c1-c1ccc(CN2CCOCC2)cc1 [Luminespib] (partner 0.01 µM)
Summary of the method: as §1

Tipifarnib + Tozasertib = compound: Cn1cncc1[C@@](N)(c1ccc(Cl)cc1)c1ccc2c(c1)c(-c1cccc(Cl)c1)cc(=O)n2C [Tipifarnib] + Cc1cc(Nc2cc(N3CCN(C)CC3)nc(Sc3ccc(NC(=O)C4CC4)cc3)n2)n[nH]1 [Tozasertib] (partner 0.1 µM)
Summary of the method: as §1

Tipifarnib + AZD7762 = compound: Cn1cncc1[C@@](N)(c1ccc(Cl)cc1)c1ccc2c(c1)c(-c1cccc(Cl)c1)cc(=O)n2C [Tipifarnib] + NC(=O)Nc1cc(-c2cccc(F)c2)sc1C(=O)N[C@H]1CCCNC1 [AZD7762] (partner 0.2 µM)
Summary of the method: as §1

Cell Line | relative viability (Tipifarnib + Foretinib; first compound 0.01 µM) | relative viability (Tipifarnib + Foretinib; first compound 0.03162 µM) | relative viability (Tipifarnib + Foretinib; first compound 0.1 µM) | relative viability (Tipifarnib + Foretinib; first compound 0.3162 µM) | relative viability (Tipifarnib + Foretinib; first compound 1 µM) | relative viability (Tipifarnib + Luminespib; first compound 0.01 µM) | relative viability (Tipifarnib + Luminespib; first compound 0.03162 µM) | relative viability (Tipifarnib + Luminespib; first compound 0.1 µM) | relative viability (Tipifarnib + Luminespib; first compound 0.3162 µM) | relative viability (Tipifarnib + Luminespib; first compound 1 µM) | relative viability (Tipifarnib + Tozasertib; first compound 0.01 µM) | relative viability (Tipifarnib + Tozasertib; first compound 0.03162 µM) | relative viability (Tipifarnib + Tozasertib; first compound 0.1 µM) | relative viability (Tipifarnib + Tozasertib; first compound 0.3162 µM) | relative viability (Tipifarnib + Tozasertib; first compound 1 µM) | relative viability (Tipifarnib + AZD7762; first compound 0.01 µM) | relative viability (Tipifarnib + AZD7762; first compound 0.03162 µM) | relative viability (Tipifarnib + AZD7762; first compound 0.1 µM) | relative viability (Tipifarnib + AZD7762; first compound 0.3162 µM) | relative viability (Tipifarnib + AZD7762; first compound 1 µM)
A549 | 1.03 | 0.843 | 0.386 | 0.296 | 0.366 |  |  |  |  |  |  |  |  |  |  |  |  |  |  | 
COR-L23 | 1.14 | 0.839 | 0.699 | 0.618 | 0.579 | 0.814 | 0.568 | 0.511 | 0.344 | 0.438 | 0.213 | 0.175 | 0.232 | 0.146 | 0.15 |  |  |  |  | 
COR-L 105 | 1.18 | 0.872 | 0.897 | 0.504 | 0.604 | 0.692 | 0.775 | 0.475 | 0.432 | 0.675 | 0.333 | 0.356 | 0.281 | 0.305 | 0.294 |  |  |  |  | 
Calu-6 | 0.886 | 0.62 | 0.698 | 0.518 | 0.424 |  |  |  |  |  |  |  |  |  |  |  |  |  |  | 
EBC-1 | 0.103 | 0.0929 | 0.0996 | 0.113 | 0.0971 |  |  |  |  |  |  |  |  |  |  |  |  |  |  | 
HCC-44 |  |  |  |  |  | 0.98 | 0.93 | 0.899 | 0.839 | 0.855 | 0.935 | 0.665 | 0.572 | 0.623 | 0.578 | 0.943 | 0.979 | 0.959 | 0.899 | 0.837
HCC-78 | 0.58 | 0.546 | 0.491 | 0.513 | 0.461 |  |  |  |  |  | 0.403 | 0.371 | 0.388 | 0.32 | 0.297 | 0.772 | 0.811 | 0.483 | 0.511 | 0.415
HCC-366 | 1.04 | 0.995 | 0.586 | 0.631 | 0.121 |  |  |  |  |  | 0.091 | 0.0658 | 0.0515 | 0.0779 | 0.0476 | 0.281 | 0.304 | 0.171 | 0.0878 | 0.0371
IA-LM | 0.905 | 0.55 | 0.47 | 0.299 | 0.33 |  |  |  |  |  |  |  |  |  |  |  |  |  |  | 
NCI-H520 | 0.978 | 0.614 | 0.681 | 0.506 | 0.351 | 0.235 | 0.233 | 0.207 | 0.207 | 0.23 | 0.404 | 0.4 | 0.348 | 0.335 | 0.336 |  |  |  |  | 
NCI-H661 | 1.03 | 1.03 | 0.936 | 0.793 | 0.83 | 0.898 | 0.844 | 0.847 | 0.713 | 0.669 | 0.355 | 0.347 | 0.337 | 0.34 | 0.347 |  |  |  |  | 
NCI-H1299 | 1.06 | 1.04 | 1 | 0.947 | 0.979 |  |  |  |  |  |  |  |  |  |  |  |  |  |  | 
NCI-H1563 | 1.03 | 1.04 | 0.879 | 0.82 | 0.87 | 0.491 | 0.558 | 0.538 | 0.519 | 0.526 |  |  |  |  |  |  |  |  |  | 
NCI-H1648 |  |  |  |  |  |  |  |  |  |  | 0.368 | 0.479 | 0.285 | 0.483 | 0.352 | 0.625 | 0.535 | 0.681 | 0.551 | 0.341
NCI-H1650 | 0.766 | 0.633 | 0.668 | 0.424 | 0.554 | 0.19 | 0.208 | 0.189 | 0.203 | 0.184 | 0.267 | 0.283 | 0.241 | 0.205 | 0.326 |  |  |  |  | 
NCI-H1703 | 0.343 | 0.247 | 0.325 | 0.267 | 0.294 |  |  |  |  |  |  |  |  |  |  | 0.139 | 0.111 | 0.125 | 0.0872 | 0.14
NCI-H1792 |  |  |  |  |  | 0.505 | 0.329 | 0.379 | 0.268 | 0.262 |  |  |  |  |  | 0.722 | 0.417 | 0.373 | 0.237 | 0.173
NCI-H2009 | 1.3 | 1.11 | 0.84 | 0.645 | 0.7 | 0.955 | 0.827 | 0.786 | 0.528 | 0.599 | 0.605 | 0.574 | 0.421 | 0.341 | 0.419 |  |  |  |  | 
NCI-H2023 | 0.958 | 0.7 | 0.609 | 0.336 | 0.505 | 0.749 | 0.486 | 0.386 | 0.337 | 0.286 | 0.251 | 0.289 | 0.217 | 0.182 | 0.215 |  |  |  |  | 
NCI-H2228 | 1.04 | 0.815 | 0.636 | 0.495 | 0.672 | 0.126 | 0.126 | 0.165 | 0.145 | 0.157 | 0.24 | 0.164 | 0.223 | 0.174 | 0.235 |  |  |  |  | 
SK-LU-1 | 0.877 | 0.723 | 0.542 | 0.481 | 0.477 | 0.252 | 0.212 | 0.208 | 0.236 | 0.193 | 0.305 | 0.302 | 0.311 | 0.248 | 0.265 |  |  |  |  | 
SK-MES-1 | 0.916 | 0.869 | 0.905 | 0.681 | 0.542 | 0.679 | 0.606 | 0.675 | 0.373 | 0.348 | 0.834 | 0.76 | 0.63 | 0.566 | 0.572 |  |  |  |  | 
SW 1573 | 1.12 | 0.873 | 0.657 | 0.498 | 0.173 | 0.208 | 0.164 | 0.239 | 0.166 | 0.187 | 0.177 | 0.179 | 0.145 | 0.142 | 0.176 |  |  |  |  | 
UMC-11 | 0.856 | 0.725 | 0.612 | 0.616 | 0.578 | 0.99 | 0.845 | 0.711 | 0.665 | 0.621 | 0.19 | 0.193 | 0.194 | 0.181 | 0.177 |  |  |  |  | 
